Assay results from the supplement of paper PMC11061612.

Experiments:
Test in all cases: combination Emax (second highest fraction inhibited in the dose matrix, 72 h); higher = more inhibition; extreme values may be limits of the assay
[1] = test system: BC-1 (B-Cell Non-Hodgkin's Lymphoma)
Outline: (§1)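 After 24 hours at 37°C and 5% CO2 in 1536-well plates, cells in DMEM/F12 or RPMI plus 10% FBS received two-drug dose matrices for 72 hours. Viability came from CellTiter-Glo 2.0 luminescence and was scaled as inhibition, anchored at 0 by vehicle wells and at 1 by blank wells. Combination Emax is taken as the second-highest inhibition in the matrix, and Bliss excess as the observed combination effect less EA + EB − EA·EB, with EA and EB the single-agent effects.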

[2] = test system: CAL-85-1 (Breast Carcinoma)
Outline: as §1

[3] = test system: MRK-nu-1 (Breast Carcinoma)
Outline: as §1

[4] = test system: NCI-H835 (Other Solid Carcinomas)
Outline: as §1

[5] = test system: KNS-62 (Squamous Cell Lung Carcinoma)
Outline: as §1

[6] = test system: NCI-H1648 (Lung Adenocarcinoma)
Outline: as §1

NCI-H2452 (Mesothelioma) = test system: NCI-H2452 (Mesothelioma)
Outline: as §1

[7] = test system: RPMI-8402 (T-Lymphoblastic Leukemia)
Outline: as §1

MG-63 (Osteosarcoma) = test system: MG-63 (Osteosarcoma)
Outline: as §1

[8] = test system: NCI-H2170 (Squamous Cell Lung Carcinoma)
Outline: as §1

[9] = test system: HT-3 (Cervical Carcinoma)
Outline: as §1

[10] = test system: GRANTA-519 (B-Cell Non-Hodgkin's Lymphoma)
Outline: as §1

DK-MG (Glioblastoma) = test system: DK-MG (Glioblastoma)
Outline: as §1

[11] = test system: OCI-M1 (Acute Myeloid Leukemia)
Outline: as §1

[12] = test system: SCC90 (Head and Neck Carcinoma)
Outline: as §1

[13] = test system: IGROV-1 (Ovarian Carcinoma)
Outline: as §1

[14] = test system: SBC-5 (Small Cell Lung Carcinoma)
Outline: as §1

[15] = test system: JURL-MK1 (Chronic Myelogenous Leukemia)
Outline: as §1

[16] = test system: NCI-H1975 (Lung Adenocarcinoma)
Outline: as §1

[17] = test system: ATN-1 (T-Lymphoblastic Leukemia)
Outline: as §1

Compound	combination Emax [1]	combination Emax [2]	combination Emax [3]	combination Emax [4]	combination Emax [5]	combination Emax [6]	combination Emax (NCI-H2452 (Mesothelioma))	combination Emax [7]	combination Emax (MG-63 (Osteosarcoma))	combination Emax [8]	combination Emax [9]	combination Emax [10]	combination Emax (DK-MG (Glioblastoma))	combination Emax [11]	combination Emax [12]	combination Emax [13]	combination Emax [14]	combination Emax [15]	combination Emax [16]	combination Emax [17]
CN(CCO)CC[C@H](CSc1ccccc1)Nc1ccc(S(=O)(=O)NC(=O)c2ccc(N3CCC([C@@H](O)c4ccccc4-c4ccc(Cl)cc4)CC3)cc2)cc1S(=O)(=O)C(F)(F)F [AZD4320] + CS(=O)(=O)CCNCc1ccc(-c2ccc3ncnc(Nc4ccc(OCc5cccc(F)c5)c(Cl)c4)c3c2)o1 [Lapatinib] (first compound max 1 µM, 7x7, partner max 10 µM)	0.961	0.957	0.387	0.982	0.291	0.952	0.581	0.988	0.596	–	–	–	–	–	–	–	–	–	–	–
C[C@@H](Oc1cc(-c2cnn(C3CCNCC3)c2)cnc1N)c1c(Cl)ccc(F)c1Cl [Crizotinib] + Cn1cnc2c(F)c(Nc3ccc(Br)cc3Cl)c(C(=O)NOCCO)cc21 [Selumetinib] (first compound max 10 µM, 7x7, partner max 10 µM)	0.838	0.412	0.224	0.646	0.369	0.58	0.551	0.99	0.672	–	–	–	–	–	–	–	–	–	–	–
C[C@@H](Nc1cc(F)cc(F)c1)c1cc(C(=O)N(C)C)cc2c(=O)cc(N3CCOCC3)oc12 [AZD8186] + CC(=O)c1c(C)c2cnc(Nc3ccc(N4CCNCC4)cn3)nc2n(C2CCCC2)c1=O [Palbociclib] (first compound max 10 µM, 7x7, partner max 10 µM)	0.93	0.164	0.36	0.802	0.358	0.579	0.417	0.9	0.633	–	–	–	–	–	–	–	–	–	–	–
C=CCn1c(=O)c2cnc(Nc3ccc(N4CCN(C)CC4)cc3)nc2n1-c1cccc(C(C)(C)O)n1 [AZD1775] + Nc1ccn([C@@H]2O[C@H](CO)[C@@H](O)C2(F)F)c(=O)n1 [Gemcitabine] (first compound max 1 µM, partner max 0.3 µM)	0.995	0.697	0.688	0.476	0.561	0.643	0.693	1	0.955	–	–	–	–	–	–	–	–	–	–	–
Cc1c2c(nn1C)CSCc1cc(n(C)n1)CSc1cc(c3ccccc3c1)OCCCc1c(C(=O)O)n(C)c3c-2c(Cl)ccc13 [AZD5991] + C[C@@H]1COCCN1C2=NC(=NC(=C2)C3(CC3)[S@](=N)(=O)C)C4=C5C=CNC5=NC=C4 [AZD6738] (first compound max 1 µM, 7x7, partner max 10 µM)	1	0.584	1	–	0.491	0.865	0.579	0.999	0.491	0.683	0.907	0.906	0.707	0.973	0.928	0.852	0.9	1	0.664	1
Cc1c2c(nn1C)CSCc1cc(n(C)n1)CSc1cc(c3ccccc3c1)OCCCc1c(C(=O)O)n(C)c3c-2c(Cl)ccc13 [AZD5991] + Cn1cnc2c(F)c(Nc3ccc(Br)cc3Cl)c(C(=O)NOCCO)cc21 [Selumetinib] (first compound max 1 µM, 7x7, partner max 3 µM)	1	0.584	1	–	0.339	0.844	0.32	0.692	0.251	0.184	0.789	0.106	0.689	0.618	0.99	0.734	0.415	0.952	0.816	0.888
CC1(C)CCC(CN2CCN(c3ccc(C(=O)NS(=O)(=O)c4ccc(NCC5CCOCC5)c([N+](=O)[O-])c4)c(Oc4cnc5[nH]ccc5c4)c3)CC2)=C(c2ccc(Cl)cc2)C1 [Venetoclax] + Cn1cnc2c(F)c(Nc3ccc(Br)cc3Cl)c(C(=O)NOCCO)cc21 [Selumetinib] (first compound max 1 µM, 7x7, partner max 3 µM)	0.408	0.356	0.235	–	0.253	0.496	0.181	0.084	0.148	0.107	0.118	0.323	0.362	0.483	0.726	0.595	0.18	0.876	0.28	0.137
CN(CCO)CC[C@H](CSc1ccccc1)Nc1ccc(S(=O)(=O)NC(=O)c2ccc(N3CCC([C@@H](O)c4ccccc4-c4ccc(Cl)cc4)CC3)cc2)cc1S(=O)(=O)C(F)(F)F [AZD4320] + C=CCn1c(=O)c2cnc(Nc3ccc(N4CCN(C)CC4)cc3)nc2n1-c1cccc(C(C)(C)O)n1 [AZD1775] (first compound max 1 µM, partner max 1 µM)	0.999	0.439	0.174	–	0.363	0.707	0.737	1	0.266	0.8	0.264	1	0.283	1	0.85	0.894	0.406	1	0.562	0.982
CCN(CCO)CCCOc1ccc2c(Nc3cc(CC(=O)Nc4cccc(F)c4)[nH]n3)ncnc2c1 [AZD2811] + C=CCn1c(=O)c2cnc(Nc3ccc(N4CCN(C)CC4)cc3)nc2n1-c1cccc(C(C)(C)O)n1 [AZD1775] (first compound max 1 µM, partner max 1 µM)	0.989	0.297	0.373	–	0.169	0.439	0.574	1	0.393	0.716	0.241	0.798	0.285	0.922	0.752	0.755	0.732	0.995	0.364	1
CCN(CCO)CCCOc1ccc2c(Nc3cc(CC(=O)Nc4cccc(F)c4)[nH]n3)ncnc2c1 [AZD2811] + C[C@@H]1COCCN1C2=NC(=NC(=C2)C3(CC3)[S@](=N)(=O)C)C4=C5C=CNC5=NC=C4 [AZD6738] (first compound max 1 µM, 7x7, partner max 10 µM)	0.921	0.481	0.732	–	0.417	0.633	0.431	1	0.677	0.803	0.694	0.782	0.308	0.969	0.353	0.646	0.754	1	0.483	1
C=CCn1c(=O)c2cnc(Nc3ccc(N4CCN(C)CC4)cc3)nc2n1-c1cccc(C(C)(C)O)n1 [AZD1775] + O=C(c1cc(Cc2n[nH]c(=O)c3ccccc23)ccc1F)N1CCN(C(=O)C2CC2)CC1 [Olaparib] (first compound max 1 µM, partner max 10 µM)	0.998	0.394	0.336	–	0.225	0.702	0.574	1	0.548	0.58	0.339	0.804	0.32	0.869	0.822	0.769	0.507	0.994	0.262	1
CC1(C)CCC(CN2CCN(c3ccc(C(=O)NS(=O)(=O)c4ccc(NCC5CCOCC5)c([N+](=O)[O-])c4)c(Oc4cnc5[nH]ccc5c4)c3)CC2)=C(c2ccc(Cl)cc2)C1 [Venetoclax] + CN(C)CCCOc1ccc(-c2ccc3ncc4c(c3c2)n(C2CCOCC2)c(=O)n4C)cn1 [AZD0156] (first compound max 1 µM, 7x7, partner max 1 µM)	0.555	0.136	0.132	–	0.262	0.267	0.277	0.188	0.217	0.243	0.145	0.388	0.292	0.19	0.324	0.535	0.163	0.262	0.216	0.402
CN(CCO)CC[C@H](CSc1ccccc1)Nc1ccc(S(=O)(=O)NC(=O)c2ccc(N3CCC([C@@H](O)c4ccccc4-c4ccc(Cl)cc4)CC3)cc2)cc1S(=O)(=O)C(F)(F)F [AZD4320] + CN(C)CCCOc1ccc(-c2ccc3ncc4c(c3c2)n(C2CCOCC2)c(=O)n4C)cn1 [AZD0156] (first compound max 1 µM, 7x7, partner max 1 µM)	0.17	0.29	0.164	–	0.125	0.55	0.246	0.903	0.136	0.613	0.143	0.934	0.192	0.988	0.496	0.611	0.102	0.825	0.256	0.656
